Data as given in the supplement of paper PMC10307832.

Experiments:
Assay in all cases: relative viability (nuclei count vs DMSO), 5 days (fraction); higher = more cells survive
Dabrafenib + Bortezomib = compound: CC(C)(C)c1nc(-c2cccc(NS(=O)(=O)c3c(F)cccc3F)c2F)c(-c2ccnc(N)n2)s1 [Dabrafenib] + CC(C)C[C@H](NC(=O)[C@H](Cc1ccccc1)NC(=O)c1cnccn1)B(O)O [Bortezomib] (partner 0.002 µM)
Summary of the method: (§1)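 Medians of duplicate plates are given as relative viability. That measure is the nuclei count in treated wells divided by the count in vehicle wells. Counts were taken on 4× images of lung cancer cell lines in 1536-well plates, 5 days after pin-tool dosing the day after seeding with one drug alone or a fixed anchor-drug dose plus five library-drug doses (not always all listed) in √10 steps.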

Dabrafenib + Dasatinib = compound: CC(C)(C)c1nc(-c2cccc(NS(=O)(=O)c3c(F)cccc3F)c2F)c(-c2ccnc(N)n2)s1 [Dabrafenib] + Cc1nc(Nc2ncc(C(=O)Nc3c(C)cccc3Cl)s2)cc(N2CCN(CCO)CC2)n1 [Dasatinib] (partner 0.075 µM)
Summary of the method: as §1

VX-702 + Trametinib = compound: NC(=O)c1ccc(N(C(N)=O)c2c(F)cccc2F)nc1-c1ccc(F)cc1F [VX-702] + CC(=O)Nc1cccc(-n2c(=O)n(C3CC3)c(=O)c3c(Nc4ccc(I)cc4F)n(C)c(=O)c(C)c32)c1 [Trametinib] (partner 0.02 µM)
Summary of the method: as §1

VX-702 + Foretinib = compound: NC(=O)c1ccc(N(C(N)=O)c2c(F)cccc2F)nc1-c1ccc(F)cc1F [VX-702] + COc1cc2c(Oc3ccc(NC(=O)C4(C(=O)Nc5ccc(F)cc5)CC4)cc3F)ccnc2cc1OCCCN1CCOCC1 [Foretinib] (partner 0.25 µM)
Summary of the method: as §1

Cell Line | relative viability (Dabrafenib + Bortezomib; first compound 0.009487 µM) | relative viability (Dabrafenib + Bortezomib; first compound 0.03 µM) | relative viability (Dabrafenib + Bortezomib; first compound 0.09487 µM) | relative viability (Dabrafenib + Bortezomib; first compound 0.3 µM) | relative viability (Dabrafenib + Dasatinib; first compound 0.003 µM) | relative viability (Dabrafenib + Dasatinib; first compound 0.009487 µM) | relative viability (Dabrafenib + Dasatinib; first compound 0.03 µM) | relative viability (Dabrafenib + Dasatinib; first compound 0.09487 µM) | relative viability (Dabrafenib + Dasatinib; first compound 0.3 µM) | relative viability (VX-702 + Trametinib; first compound 0.02 µM) | relative viability (VX-702 + Trametinib; first compound 0.2 µM) | relative viability (VX-702 + Trametinib; first compound 0.6325 µM) | relative viability (VX-702 + Trametinib; first compound 2 µM) | relative viability (VX-702 + Foretinib; first compound 0.02 µM) | relative viability (VX-702 + Foretinib; first compound 0.2 µM) | relative viability (VX-702 + Foretinib; first compound 0.6325 µM) | relative viability (VX-702 + Foretinib; first compound 2 µM) | relative viability (Dabrafenib + Bortezomib; first compound 0.003 µM)
NCI-H647 | 0.778 | 0.789 | 1.19 | 1.03 | 0.0445 | 0.161 | 0.305 | 0.188 | 0.159 | 0.555 | 0.571 | 0.497 | 0.678 | 1.22 | 1.08 | 1 | 1.4 | 
NCI-H1666 |  | 0.957 | 0.859 | 0.814 | 0.84 | 0.775 | 0.798 | 0.809 | 0.822 | 0.89 | 0.819 | 0.883 | 0.739 | 0.992 |  | 1.02 | 1.06 | 0.806
NCI-H3122 | 1.01 | 1.12 | 1.06 | 1.1 | 0.773 | 0.767 | 0.908 | 0.793 | 0.75 | 0.24 | 0.201 | 0.206 | 0.203 | 0.964 | 0.946 | 1.01 | 0.923 | 1.04
NCI-H520 | 0.59 | 0.476 | 0.544 | 0.731 | 0.223 | 0.24 | 0.199 | 0.179 | 0.177 | 0.712 | 0.799 | 0.589 | 0.649 | 0.876 | 0.73 | 0.607 | 0.744 | 0.584
NCI-H1915 | 0.99 | 0.899 | 0.584 | 0.502 | 0.316 | 0.318 | 0.386 | 0.296 | 0.345 | 0.324 | 0.294 | 0.302 | 0.319 | 1.1 | 1.06 | 1.06 | 1.17 | 0.975
NCI-H2126 | 1.1 | 1.12 | 1.13 | 1.15 | 0.582 | 0.642 | 0.681 | 0.713 | 0.69 | 0.511 | 0.542 | 0.547 | 0.544 | 1.15 | 1.1 | 1.21 | 1.18 | 1.1
NCI-H596 | 1 | 0.818 | 0.895 | 0.986 |  | 0.624 | 0.742 | 0.544 | 0.646 | 0.908 | 0.832 | 0.835 | 0.886 | 0.79 | 0.82 | 1.11 | 0.992 | 0.6
NCI-H23 | 0.95 | 0.861 | 0.643 | 1.07 |  | 0.814 | 0.873 | 0.625 | 0.666 | 0.4 | 0.411 | 0.392 | 0.413 | 0.961 | 1.03 | 1.15 | 1.21 | 
NCI-H650 | 0.865 | 0.645 | 0.494 | 0.453 |  | 0.332 | 0.402 | 0.314 | 0.294 | 0.92 | 0.978 | 1.1 | 1.08 | 1.01 |  | 1.11 | 1.25 | 
LCLC-103H | 1.14 | 0.995 | 1.09 | 1.01 | 0.495 | 0.526 | 0.513 | 0.447 | 0.379 | 0.723 | 0.743 | 0.665 | 0.711 | 0.71 | 0.702 | 0.534 | 0.881 | 1.06
NCI-H441 | 0.453 | 0.393 | 0.323 | 0.35 |  | 0.623 | 0.689 | 0.55 | 0.456 | 0.349 | 0.386 | 0.351 | 0.538 | 0.955 | 0.774 | 0.984 | 1.12 | 
UMC-11 | 0.637 | 0.647 | 0.681 | 0.735 | 0.43 | 0.462 | 0.41 | 0.446 | 0.501 | 0.682 | 0.544 | 0.562 | 0.846 | 0.988 | 0.843 | 0.893 | 1.21 | 1.05
COR-L23 | 1.15 | 0.91 | 0.898 | 0.915 | 0.448 | 0.441 | 0.555 | 0.455 | 0.425 | 0.715 | 0.602 | 0.686 | 0.69 | 1.04 | 1 | 0.995 | 1.38 | 1.06
NCI-H2405 | 0.91 | 0.766 | 0.867 | 0.959 |  | 0.221 |  | 0.181 | 0.172 | 0.58 | 0.593 | 0.615 | 0.618 | 1.08 | 0.98 | 0.965 | 1.02 | 
HOP-62 | 0.809 | 0.861 | 0.235 | 0.706 | 0.509 | 0.738 | 0.588 | 0.603 | 0.539 | 0.419 | 0.397 | 0.469 | 0.45 | 1.18 | 1.19 | 1.25 | 1.33 | 
NCI-H1975 | 0.432 | 0.374 | 0.49 | 0.429 | 0.372 | 0.345 | 0.363 | 0.344 | 0.392 | 0.383 | 0.35 | 0.29 | 0.329 | 0.969 | 0.915 | 0.943 | 1.09 | 0.333
